14 compounds from patent publication EP1919471B1, “(INDOL-3-YL)-HETEROCYCLE DERIVATIVES AS AGONISTS OF THE CANNABINOID CB1 RECEPTOR” (Merck Sharp & Dohme B.V., priority 2005, dated 2007) can be followed below.

The pEC50 is −log10 of the EC50, conventionally taken in molar units. In general, EC50 refers to the concentration giving half of the maximal effect. As usually defined, the ED50 is the dose at which the effect has come halfway, by size or by number of responders.

Test [1] deals with T1, human CB1 receptor (Homo sapiens, UniProt P21554).
T1 construct: expressed in transfected cells; host or cells: CHO (Chinese Hamster Ovary) cells
Put plainly: In-vitro determination of efficacy and potency at the human CB1 receptor expressed in CHO cells (luciferase reporter assay). The format is cell-based. Particulars: CHO cells expressing the human CB1 receptor and a luciferase reporter gene; 5 h at 37 °C. On the procedure: Methods to determine receptor binding as well as in vitro biological activity of cannabinoid receptor modulators are well known in the art. In general, expressed receptor is contacted with the compound to be tested and binding or stimulation or inhibition of a functional response is measured. To measure a functional response isolated DNA encoding the CB1 receptor gene, preferably the human receptor, is expressed in suitable host cells. Such a cell might be the Chinese Hamster Ovary cell, but other cells are also suitable. Preferably the cells are of mammalian origin. Methods to construct recombinant CB1 expressing cell lines are well known in the art (Sambrook et al, Molecular Cloning: a Laboratory Manual, Cold Spring Harbor Laboratory Press, Cold Spring Harbor, latest edition). Expression of the receptor is attained by expression of the DNA encoding the desired protein. Techniques for ligation of additional sequences and construction of suitable expression systems are all, by now, well known in the art. Portions or all of the DNA encoding the desired protein can be constructed synthetically using standard solid phase techniques, preferably to include restriction sites for ease of ligation. Suitable control elements for transcription and translation of the included coding sequence can be provided to the DNA coding sequences. As is well known, expression systems are now available which are compatible with a wide variety of hosts, including prokaryotic hosts such as bacteria and eukaryotic hosts such as yeast, plant cells, insect cells, mammalian cells, avian cells and the like. Cells expressing the receptor are then contacted with the test compound to observe binding, or stimulation or inhibition of a functional response. Alternatively isolated cell membranes containing the expressed CB1 (or CB2) receptor may be used to measure binding of compound. For measurement of binding radioactively or fluorescently labelled compounds may be used. The most widely used radiolabelled cannabinoid probe is [^3H]CP55940, which has approximately equal affinity for CB1 and CB2 binding sites. Functional CB1 agonist activity may be measured by determining the second messenger response, such as for example measurement of receptor mediated changes in cAMP or MAPkinase pathways. Thus, such a method involves expression of the CB1 receptor on the cell surface of a host cell and exposing the cell to the test compound. The second messenger response is then measured. The level of second messenger will be reduced or increased, depending on the effect of the test compound upon binding to the receptor.
In-vitro determination of efficacy and potency at the human CB1 receptor expressed in CHO cells
Chinese Hamster Ovary (CHO) cells expressing the human CB1 receptor and a luciferase reporter gene were suspended in phenol red/serum free DMEM/F-12 nut mix containing penicillin/streptomycin (50U/50 µg/ml) and fungizone (1 µg/ml) and seeded into 96 well plates at a density of 3 x 10^4 cells per well (100 µl final volume). Cells were incubated overnight (approx. 18 h at 37°C, 5% CO2/95% air) prior to assay. The test compound (10 mM solution in dimethylsulfoxide) was diluted in F12 Nut Mix to give a range of stock solutions from 0.11 mM to 0.11 nM. The stock solutions (10 µl) were added directly to the relevant wells. The plates were incubated at 37 °C for 5 h to allow agonist-induced expression of the luciferase enzyme. Under subdued light, LucLite substrate (Packard; reconstituted as per manufacturer's instructions; 100 µl) was added to each well. Plates were covered with Top Seal and then incubated at room temperature for 5 minutes before counting on the Packard TopCount (single photon counting, 0.01 minute count time, 5 minute count delay). A "best-fit" curve was fitted by a minimum sum of squares method to the plot of counts per second (CPS) against compound concentration (M) to obtain an EC50 value. […]

Test [2] has as its system Mice. Nature of the test: Formalin Paw Test in Mice. Type of test: in vivo. The following applies: Mus musculus, iv, administered intravenously 5 minutes before 5% formalin, Phase 2 = between 20 and 30 min after formalin injection, read-out: ED50, inhibition of the nociceptive behaviour of Phase 2. The procedure:
Formalin Paw Test in Mice
Four - six groups of six mice were treated with vehicle and one of four to five doses of the test compound (typically between 0.03, 0.1, 3 and 10 µmol/kg), administered intravenously into the tail vein (vehicle: 10% Tween-80 in saline; injection volume 10 ml/kg). This injection was followed 5 minutes later by 20 µl of 5% formalin, which was administered sub-cutaneously to the dorsum of the left hind paw. Immediately after formalin administration the animal was placed in a test chamber and data acquisition, using a detection device (Automated Nociception Analyser (ANA); Department of Anesthesiology, University of California, San Diego), was started, independently for each chamber. The nociceptive behaviour was measured as the number of counts (licking, lifting, biting and flinching actions) detected within the two phases of nociception (Yaksh et al, 2001). The nociceptive behaviour between 0 and 5 min after formalin injection (Phase 1) and between 20 and 30 min after formalin injection (Phase 2) was recorded and number of counts for each mouse, compared to the mean number of counts for the vehicle treated animals, was calculated. Once values for each mouse were obtained, the mean and s.e.m. were calculated for each treatment group. The percent inhibition data were then used to calculate ED50 values for Phase 1 and Phase 2.

T1 sequence (P21554 whole entry): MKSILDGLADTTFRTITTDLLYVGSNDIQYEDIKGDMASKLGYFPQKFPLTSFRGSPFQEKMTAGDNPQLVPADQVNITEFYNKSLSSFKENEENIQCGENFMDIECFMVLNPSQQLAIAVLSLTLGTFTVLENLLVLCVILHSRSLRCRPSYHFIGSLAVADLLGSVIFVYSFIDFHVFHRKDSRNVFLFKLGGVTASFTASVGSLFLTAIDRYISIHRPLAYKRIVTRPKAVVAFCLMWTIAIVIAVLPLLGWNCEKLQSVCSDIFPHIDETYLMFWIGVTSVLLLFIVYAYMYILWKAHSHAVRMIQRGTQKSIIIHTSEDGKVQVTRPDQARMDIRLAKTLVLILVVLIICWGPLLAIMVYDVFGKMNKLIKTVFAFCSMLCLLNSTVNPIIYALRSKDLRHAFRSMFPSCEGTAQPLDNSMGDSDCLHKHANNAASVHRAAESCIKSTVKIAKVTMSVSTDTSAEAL

Compound “7-Ethyl-3-[(5-{N-[4-(carboxamido)methyl]piperidin-1-yl}methyl)-([1,2,4]-thiadiazol-3-yl)]-1-(tetrahydropyran-4-yl)methyl-1H-indole [Example 12]” yielded a pEC50 in test [1] of 6.9.

As for `COCCN(Cc1nc(-c2cn(CC3CCOCC3)c3c(Cl)cccc23)ns1)S(C)(=O)=O` [Example 7, 7-Chloro-3-({5-[(N-{2-methoxy}ethyl)-(N-{methylsulfonyl})amino]methyl}-([1,2,4]-thiadiazol-3-yl))-1-(tetrahydropyran-4-yl)methyl-1H-indole], in test [1], it took 0.0794 µM to reach a half-maximal effect (EC50).

`CCc1cccc2c(-c3nsc(CN(C)CC(N)=O)n3)cn(CC3CCOCC3)c12` [Example 9, 7-Ethyl-3-[(5-{[N-(carboxamido)methyl]-N-methylamino}methyl)-([1,2,4]-thiadiazol-3-yl)]-1-(tetrahydropyran-4-yl)methyl-1H-indole] gave an EC50 in test [1] of 0.126 µM.

In the case of `CCc1cccc2c(-c3nsc(CN4CCC(C(=O)NCCO)CC4)n3)cn(CC3CCOCC3)c12` [Example 10A, 7-Ethyl-3-[(5-{4-[(N-{2-hydroxy}ethyl)carboxamido]piperidin-1-yl}methyl)-([1,2,4]-thiadiazol-3-yl)]-1-(tetrahydropyran-4-yl)methyl-1H-indole], in test [2], the ED50 is under 5 µmol/kg. In addition, a half-maximal effect in test [1] (EC50) was put at 0.0126 µM.

With `O=C(NCCO)[C@H]1CCCN(Cc2nc(-c3cn(CC4CCS(=O)(=O)CC4)c4c(Cl)cccc34)ns2)C1` [Example 13, (S)-7-Chloro-3-[(5-{[3-N-(2-hydroxyethyl)carboxamido]piperidin-1-yl}methyl)-([1,2,4]-thiadiazol-3-yl)]-1-(1,1-dioxo-hexahydrothiopyran-4-yl)methyl-1H-indole], the negative logarithm of the EC50 (pEC50) in test [1] was determined as 6.9.

Regarding `CS(=O)(=O)N(CCO)Cc1nc(-c2cn(CC3CCOCC3)c3c(Cl)cccc23)ns1` [Example 15, 7-Chloro-3-({5-[(N-{2-hydroxy}ethyl)-(N-{methylsulfonyl})amino]methyl}-([1,2,4]-thiadiazol-3-yl))-1-(tetrahydropyran-4-yl)methyl-1H-indole], the ED50 in test [2] is under 5 µmol/kg. The EC50 in test [1] was 0.02 µM.

For `OCC1CCN(Cc2nnc(-c3cn(CC4CCCCC4)c4c(Cl)cccc34)o2)CC1` [Example 17, 7-Chloro-3-[(5-{4-[hydroxymethyl]piperidin-1-yl}methyl)-([1,3,4]-oxadiazol-2-yl)]-1-(cyclohexyl)methyl-1H-indole], the EC50 in test [1] is 0.126 µM.

As for `CS(=O)(=O)N1CCC[C@H]1c1nnc(-c2cn(CC3CCOCC3)c3c(Cl)cccc23)o1` [Example 18, (S)-7-Chloro-3-[(5-{N-methylsulfonyl}pyrrolidin-2-yl)-([1,3,4]-oxadiazol-2-yl)]-1-(tetrahydropyran-4-yl)methyl-1H-indole], the pEC50 in test [1] is listed as 7.2.

In the case of `O=C(NCCO)C1CCN(Cc2nc(-c3cn(CC4CCOCC4)c4c(Cl)cccc34)no2)CC1` [Example 19, 7-Chloro-3-[(5-{4-[(N-{2-hydroxy}ethyl)carboxamido]piperidin-1-yl}methyl)-([1,2,4]oxadiazol-3-yl)]-1-(tetrahydropyran-4-yl)methyl-1H-indole], the ED50 in test [2] was under 5 µmol/kg. Further, the EC50 in test [1] is 0.0794 µM.

As for `CN(CC(N)=O)Cc1nc(-c2cn(CC3CCOCC3)c3c(Cl)cccc23)no1` [Example 20, 7-Chloro-3-[(5-{[N-(carboxamido)methyl]-N-methylamino}methyl)-([1,2,4]oxadiazol-3-yl)]-1-(tetrahydropyran-4-yl)methyl-1H-indole], the ED50 in test [2] was under 5 µmol/kg. The compound also gave an EC50 in test [1] of 0.0398 µM.

The compound `CN(CC(=O)NCC(N)=O)Cc1nc(-c2cn(CC3CCOCC3)c3c(Cl)cccc23)no1` [Example 20A] showed an EC50 in test [1] of 0.0316 µM.

Turning to `CN(CC(=O)NCCO)Cc1nc(-c2cn(CC3CCOCC3)c3c(Cl)cccc23)no1` [Example 20B, 7-Chloro-3-({5-[(N-{[N-(2-hydroxyethyl)]carboxamido}methyl)-N-methylamino]methyl}-[1,2,4]oxadiazol-3-yl)-1-(tetrahydropyran-4-yl)methyl-1H-indole], in test [1], a half-maximal effect (EC50) was put at 0.0501 µM.

Regarding `COCC(=O)NCc1nc(-c2cn(CC3CCOCC3)c3c(Cl)cccc23)no1` [Example 24, 7-Chloro-3-[(5-{[N-methoxymethylformyl]amino}methyl)-([1,2,4]-oxadiazol-3-yl)]-1-(tetrahydropyran-4-yl)methyl-1H-indole], a half-maximal effect in test [1] (EC50) was put at 0.2 µM.

For `CN(C)S(=O)(=O)N(CCO)Cc1nc(-c2cn(CC3CCOCC3)c3c(Cl)cccc23)no1` [Example 25, 7-Chloro-3-[(5-{N-(N',N'-dimethylsulfonamido)}-(N-{2-hydroxy}ethylamino)methyl)-([1,2,4]-oxadiazol-3-yl)]-1-(tetrahydropyran-4-yl)methyl-1H-indole], it took 0.1 µM to reach a half-maximal effect in test [1] (EC50).
